Test results reported in the NIST ThermoML archive (doi:10.1016/j.jct.2015.12.031).

Experiments:
[1] = mn = molality of the nth substance listed, in mol/kg; settings: 86.5 kPa, Liquid; for speed of sound: Frequency=3 MHz, Sing-around technique in a fixed-path interferometer; for mass density: Vibrating tube method
[2] = refractive index (Na D-line) (dimensionless); mn = molality of the nth substance listed, in mol/kg; settings: 86.5 kPa, Liquid, Standard Abbe refractometry

c1ccsc1 [thiophene] + CCCCCCCC
Settings | mass density, [1] [kg/m3] | refractive index, [2] | speed of sound, [1] [m/s]
288.15 K, m1 = 0.0158 | 707.297 | 1.4002 | 1214.4
288.15 K, m1 = 0.0275 | 707.523 | 1.4003 | 1214.4
288.15 K, m1 = 0.0517 | 707.987 | 1.4004 | 1214.4
288.15 K, m1 = 0.0847 | 708.616 | 1.4005 | 1214.3
288.15 K, m1 = 0.0952 | 708.817 | 1.4006 | 1214.3
288.15 K, m1 = 0.1081 | 709.062 | 1.4006 | 1214.3
288.15 K, m1 = 0.1182 | 709.253 | 1.4007 | 1214.3
288.15 K, m1 = 0.1353 | 709.577 | 1.4008 | 1214.2
288.15 K, m1 = 0.1494 | 709.844 | 1.4008 | 1214.2
288.15 K, m1 = 0.1577 | 710 | 1.4009 | 1214.2
288.15 K, m1 = 0.1729 | 710.288 | 1.401 | 1214.2
288.15 K, m1 = 0.1797 | 710.414 | 1.401 | 1214.2
288.15 K, m1 = 0.1932 | 710.67 | 1.4011 | 1214.2
288.15 K, m1 = 0.2031 | 710.855 | 1.4012 | 1214.1
288.15 K, m1 = 0.3004 | 712.662 | 1.4017 | 1214
288.15 K, m1 = 0.4002 | 714.496 | 1.4023 | 1213.8
288.15 K, m1 = 0.5026 | 716.351 | 1.4028 | 1213.6
288.15 K, m1 = 0.5823 | 717.77 | 1.4033 | 1213.5
293.15 K, m1 = 0.0158 | 703.296 | 1.3976 | 1193.3
293.15 K, m1 = 0.0275 | 703.52 | 1.3977 | 1193.3
293.15 K, m1 = 0.0517 | 703.981 | 1.3978 | 1193.3
293.15 K, m1 = 0.0847 | 704.605 | 1.398 | 1193.2
293.15 K, m1 = 0.0952 | 704.805 | 1.3981 | 1193.2
293.15 K, m1 = 0.1081 | 705.047 | 1.3982 | 1193.2
293.15 K, m1 = 0.1182 | 705.236 | 1.3982 | 1193.2
293.15 K, m1 = 0.1353 | 705.558 | 1.3983 | 1193.2
293.15 K, m1 = 0.1494 | 705.822 | 1.3984 | 1193.2
293.15 K, m1 = 0.1577 | 705.976 | 1.3985 | 1193.2
293.15 K, m1 = 0.1729 | 706.262 | 1.3985 | 1193.2
293.15 K, m1 = 0.1797 | 706.389 | 1.3986 | 1193.1
293.15 K, m1 = 0.1932 | 706.641 | 1.3986 | 1193.1
293.15 K, m1 = 0.2031 | 706.824 | 1.3987 | 1193.1
293.15 K, m1 = 0.3004 | 708.627 | 1.3992 | 1193
293.15 K, m1 = 0.4002 | 710.432 | 1.3997 | 1192.9
293.15 K, m1 = 0.5026 | 712.275 | 1.4003 | 1192.7
293.15 K, m1 = 0.5823 | 713.683 | 1.4007 | 1192.6
298.15 K, m1 = 0.0158 | 699.223 | 1.3952 | 1172.4
298.15 K, m1 = 0.0275 | 699.447 | 1.3953 | 1172.4
298.15 K, m1 = 0.0517 | 699.907 | 1.3954 | 1172.4
298.15 K, m1 = 0.0847 | 700.53 | 1.3956 | 1172.3
298.15 K, m1 = 0.0952 | 700.728 | 1.3957 | 1172.3
298.15 K, m1 = 0.1081 | 700.97 | 1.3957 | 1172.3
298.15 K, m1 = 0.1182 | 701.159 | 1.3958 | 1172.3
298.15 K, m1 = 0.1353 | 701.48 | 1.3959 | 1172.3
298.15 K, m1 = 0.1494 | 701.743 | 1.396 | 1172.3
298.15 K, m1 = 0.1577 | 701.901 | 1.3961 | 1172.3
298.15 K, m1 = 0.1729 | 702.182 | 1.3961 | 1172.3
298.15 K, m1 = 0.1797 | 702.312 | 1.3962 | 1172.2
298.15 K, m1 = 0.1932 | 702.561 | 1.3962 | 1172.2
298.15 K, m1 = 0.2031 | 702.742 | 1.3963 | 1172.2
298.15 K, m1 = 0.3004 | 704.545 | 1.3968 | 1172.1
298.15 K, m1 = 0.4002 | 706.341 | 1.3973 | 1171.9
298.15 K, m1 = 0.5026 | 708.178 | 1.3978 | 1171.8
298.15 K, m1 = 0.5823 | 709.577 | 1.3982 | 1171.6
303.15 K, m1 = 0.0158 | 695.177 | 1.3926 | 1151.5
303.15 K, m1 = 0.0275 | 695.398 | 1.3927 | 1151.5
303.15 K, m1 = 0.0517 | 695.856 | 1.3928 | 1151.4
303.15 K, m1 = 0.0847 | 696.474 | 1.393 | 1151.4
303.15 K, m1 = 0.0952 | 696.672 | 1.393 | 1151.4
303.15 K, m1 = 0.1081 | 696.912 | 1.3931 | 1151.4
303.15 K, m1 = 0.1182 | 697.101 | 1.3932 | 1151.4
303.15 K, m1 = 0.1353 | 697.419 | 1.3933 | 1151.3
303.15 K, m1 = 0.1494 | 697.682 | 1.3934 | 1151.3
303.15 K, m1 = 0.1577 | 697.834 | 1.3934 | 1151.3
303.15 K, m1 = 0.1729 | 698.118 | 1.3935 | 1151.3
303.15 K, m1 = 0.1797 | 698.244 | 1.3935 | 1151.3
303.15 K, m1 = 0.1932 | 698.492 | 1.3936 | 1151.3
303.15 K, m1 = 0.2031 | 698.675 | 1.3936 | 1151.3
303.15 K, m1 = 0.3004 | 700.46 | 1.3941 | 1151.1
303.15 K, m1 = 0.4002 | 702.25 | 1.3947 | 1151
303.15 K, m1 = 0.5026 | 704.068 | 1.3953 | 1150.8
303.15 K, m1 = 0.5823 | 705.455 | 1.3957 | 1150.7

CCCCCCn1cc[n+](C)c1.[Br-] [3-hexyl-1-methyl-1H-imidazolium bromide] + c1ccsc1
Settings | mass density, [1] [kg/m3] | refractive index, [2] | speed of sound, [1] [m/s]
288.15 K, m2 = 0 | 1231.02 | 1.5282 | 1639.4
288.15 K, m2 = 0.0186 | 1230.37 | 1.5277 | 1638.2
288.15 K, m2 = 0.0221 | 1230.25 | 1.5276 | 1638
288.15 K, m2 = 0.0358 | 1229.81 | 1.5273 | 1637.2
288.15 K, m2 = 0.0433 | 1229.58 | 1.5271 | 1636.8
288.15 K, m2 = 0.0632 | 1228.97 | 1.5266 | 1635.7
288.15 K, m2 = 0.0727 | 1228.69 | 1.5264 | 1635.2
288.15 K, m2 = 0.0952 | 1228.1 | 1.5259 | 1634
288.15 K, m2 = 0.1142 | 1227.69 | 1.5255 | 1633
288.15 K, m2 = 0.137 | 1227.21 | 1.5251 | 1631.7
288.15 K, m2 = 0.1603 | 1226.74 | 1.5247 | 1630.7
288.15 K, m2 = 0.1869 | 1226.31 | 1.5242 | 1629.8
293.15 K, m2 = 0 | 1227.43 | 1.5268 | 1610.4
293.15 K, m2 = 0.0186 | 1226.77 | 1.5261 | 1609.5
293.15 K, m2 = 0.0221 | 1226.65 | 1.526 | 1609.3
293.15 K, m2 = 0.0358 | 1226.19 | 1.5257 | 1608.7
293.15 K, m2 = 0.0433 | 1225.96 | 1.5255 | 1608.4
293.15 K, m2 = 0.0632 | 1225.37 | 1.5251 | 1607.5
293.15 K, m2 = 0.0727 | 1225.11 | 1.5249 | 1607.1
293.15 K, m2 = 0.0952 | 1224.52 | 1.5244 | 1606.1
293.15 K, m2 = 0.1142 | 1224.09 | 1.524 | 1605.5
293.15 K, m2 = 0.137 | 1223.63 | 1.5234 | 1604.5
293.15 K, m2 = 0.1603 | 1223.19 | 1.5228 | 1603.7
293.15 K, m2 = 0.1869 | 1222.77 | 1.5223 | 1602.9
298.15 K, m2 = 0 | 1223.74 | 1.5254 | 1587.1
298.15 K, m2 = 0.0186 | 1223.07 | 1.5247 | 1586.3
298.15 K, m2 = 0.0221 | 1222.95 | 1.5246 | 1586.2
298.15 K, m2 = 0.0358 | 1222.49 | 1.5242 | 1585.7
298.15 K, m2 = 0.0433 | 1222.25 | 1.5239 | 1585.4
298.15 K, m2 = 0.0632 | 1221.65 | 1.5233 | 1584.6
298.15 K, m2 = 0.0727 | 1221.38 | 1.523 | 1584.3
298.15 K, m2 = 0.0952 | 1220.8 | 1.5224 | 1583.6
298.15 K, m2 = 0.1142 | 1220.33 | 1.5219 | 1582.9
298.15 K, m2 = 0.137 | 1219.88 | 1.5213 | 1582.2
298.15 K, m2 = 0.1603 | 1219.44 | 1.5208 | 1581.7
298.15 K, m2 = 0.1869 | 1219 | 1.5201 | 1581
303.15 K, m2 = 0 | 1220.35 | 1.5237 | 1568.7
303.15 K, m2 = 0.0186 | 1219.67 | 1.5227 | 1568.1
303.15 K, m2 = 0.0221 | 1219.55 | 1.5226 | 1568
303.15 K, m2 = 0.0358 | 1219.09 | 1.5223 | 1567.6
303.15 K, m2 = 0.0433 | 1218.84 | 1.5221 | 1567.4
303.15 K, m2 = 0.0632 | 1218.25 | 1.5217 | 1566.8
303.15 K, m2 = 0.0727 | 1217.98 | 1.5215 | 1566.6
303.15 K, m2 = 0.0952 | 1217.4 | 1.5211 | 1566
303.15 K, m2 = 0.1142 | 1216.96 | 1.5207 | 1565.5
303.15 K, m2 = 0.137 | 1216.51 | 1.5202 | 1564.9
303.15 K, m2 = 0.1603 | 1216.07 | 1.5197 | 1564.5
303.15 K, m2 = 0.1869 | 1215.66 | 1.5191 | 1564
